{"source": "patent US10590147B1", "about": "“Spirooxindole-pyrrolothiazole heterocyclic hybrids” (KING SAUD UNIVERSITY, priority 2019, dated 2020)", "assay_type_in_all_cases": "cell-based", "key": {"Staphylococcus aureus [1]": {"tested_on": "Staphylococcus aureus", "test": "MIC/MBC by two-fold dilution, microtiter 96 well plate method", "conditions": "drug-resistant S. aureus", "procedure": "(§1) Compounds 6a and 6b were tested for their antimicrobial activity against both gram positive and gram negative drug-resistant bacteria. Minimum inhibitory concentration (MIC) and minimum bactericidal concentration (MBC) values for compounds 6a and 6b, as compared with a reference antibacterial drug (ampicillin), for Escherichia coli (EC), Pseudomonas aeruginosa (PS), Salmonella typhi (ST), Staphylococcus aureus (SA), and Staphylococcus epidermis (SE) are reported in Tables 2A and 2B.\n(§2) The quantitative and qualitative screening of anti-bacterial activity of compounds 6a and 6b was conducted, the results being described above. Quantitative screening was determined by minimal inhibitory concentration (MIC) and minimal bactericidal concentration (MBC), while qualitative screening was accomplished by disc diffusion method. E. coli (ATCC—25922) and S. epidermis (ATCC 12228) were used as standard strains, and drug-resistant pathogens P. aeruginosa, S. typhi, and S. aureus were used to screen the antimicrobial activity. Gram negative bacteria were maintained on nutrient broth (NB)/agar plates (NA) and gram positive bacteria were maintained on trypticase soy broth (TSB)/agar plates (TSA). The compounds 6a and 6b concentration range was prepared by two-fold dilution in a sterile broth from the stock, using a microtiter 96 well plate method. Twelve dilutions of each compound, ranging from 7500 to 3.65 μg/ml, were tested, and Ampicillin was used as a positive control agent (with a range of 500 to 0.24 μg/ml)."}, "Pseudomonas aeruginosa [2]": {"tested_on": "Pseudomonas aeruginosa", "test": "MIC/MBC by two-fold dilution, microtiter 96 well plate method", "conditions": "drug-resistant P. aeruginosa", "procedure": "as §1, §2"}, "Salmonella typhi [3]": {"tested_on": "Salmonella typhi", "test": "MIC/MBC by two-fold dilution, microtiter 96 well plate method", "conditions": "drug-resistant S. typhi", "procedure": "as §1, §2"}, "Staphylococcus epidermis [4]": {"tested_on": "Staphylococcus epidermis", "test": "MIC/MBC by two-fold dilution, microtiter 96 well plate method", "conditions": "S. epidermis (ATCC 12228), standard/control strain", "procedure": "as §1, §2"}, "Escherichia coli [5]": {"tested_on": "Escherichia coli", "test": "MIC/MBC by two-fold dilution, microtiter 96 well plate method", "conditions": "E. coli (ATCC—25922), standard/control strain", "procedure": "as §1, §2"}, "Staphylococcus aureus [6]": {"tested_on": "Staphylococcus aureus", "test": "Disc diffusion, zone of inhibition", "design": "key to Zone of inhibition (class): R: Resistant", "conditions": "drug-resistant S. aureus; for Zone of inhibition: diameter: 37° C., 24h", "procedure": "(§3) The qualitative screenings of antimicrobial activity were measured by plating in petri dishes to determine the formation of zones of inhibition for bacterial pathogens tested against compounds 6a, 6b and the standard antibiotic ampicillin.\nas §2\n(§4) The mid log bacterial inoculum was speeded on NA/TSA and the loaded disc was placed on agar plates and incubated at 37° C. for 24h. After this period, the inhibitions produced by the compounds around the disc were measured using antibiotic zone scale (Hi-Media, Mumbai, India) and zone of inhibitions were measured in mm."}, "Pseudomonas aeruginosa [7]": {"tested_on": "Pseudomonas aeruginosa", "test": "Disc diffusion, zone of inhibition", "design": "key to Zone of inhibition (class): R: Resistant", "conditions": "drug-resistant P. aeruginosa; for Zone of inhibition: diameter: 37° C., 24h", "procedure": "as §3, §2, §4"}, "Salmonella typhi [8]": {"tested_on": "Salmonella typhi", "test": "Disc diffusion, zone of inhibition", "design": "key to Zone of inhibition (class): R: Resistant", "conditions": "drug-resistant S. typhi; for Zone of inhibition: diameter: 37° C., 24h", "procedure": "as §3, §2, §4"}, "Staphylococcus epidermis [9]": {"tested_on": "Staphylococcus epidermis", "test": "Disc diffusion, zone of inhibition", "conditions": "S. epidermis control strain; for Zone of inhibition: diameter: 37° C., 24h", "procedure": "as §3, §2, §4"}, "Escherichia coli [10]": {"tested_on": "Escherichia coli", "test": "Disc diffusion, zone of inhibition", "conditions": "E. coli control strain; for Zone of inhibition: diameter: 37° C., 24h", "procedure": "as §3, §2, §4"}, "P. aeruginosa": {"tested_on": "P. aeruginosa", "test": "AO/EB live/dead bacterial double staining", "conditions": "P. aeruginosa treated at MIC, 4 hours; fluorescent microscope", "procedure": "(§5) The acridine orange (AO) and ethidium bromide (EB) double staining method was used to analyse the Live/dead bacterial cells for untreated and compound 6a-treated S. aureus and P. aeruginosa cells. Both sets of cells, treated and untreated for each of the two bacteria, were stained with AO/EB for 15 minutes. The unbound dyes were removed by rinsing the cells twice with phosphate buffer saline (PBS). 10 μl samples of each were then placed on a glass slide with coverslip, and observed using a ZEISS inverted florescent microscope. The untreated gram positive (FIG. 6A) and gram negative (FIG. 6C) bacterial cells appeared green due to the presence of healthy, viable cells with intact/undamaged cell membranes and uniform chromatin. In contrast, the compound 6a-treated cells (treated gram positive in FIG. 6B, and treated gram negative in 6D) appeared red due to the resulting dents, blisters and damaged cell walls on bacterial cells, providing entry for the EB dye. Thus, the AO/EB double staining confirms the bactericidal action of compound 6a through cell wall and cell membrane damage.\n(§6) Fluorescent dye stock solution was prepared by dissolving equal quantities of acridine orange (AO) and ethidium bromide (EB)—10 mg each—in 10 ml of PBS. The working solution was prepared by diluting 200 μl of stock solution into 10 ml of PBS. […]"}, "S. aureus": {"tested_on": "S. aureus", "test": "AO/EB live/dead bacterial double staining", "conditions": "S. aureus treated at MIC, 4 hours; fluorescent microscope", "procedure": "as §5, §6"}}, "note": "Values joined by “and” are separate entries in the source; they are usually repeats but may differ in a detail not shown here. Identical values can stand only once. “Also recorded” adds a separate entry of the source. Like-named read-outs stand apart in the source and are kept apart here."}
{"smiles": "O=C1C(=Cc2ccccc2F)CNCC12C(c1ccccc1F)C1CSCN1C21C(=O)Nc2ccccc21", "note": "(stereo not drawn) [Compound 6b, spiro[5.3″ ]-oxindole-spiro-[6.2′]-6′-(2-fluorophenylmethylidene)tetrahydro-4′(1H)-pyridinone-7-(2-fluorophenyl)tetrahydro-1H-pyrrolo[1,2-c][1,3] thiazole]", "values": [{"measurement": "MBC", "setting": "Staphylococcus aureus [1]", "result": 117.15, "unit": "µg/mL"}, {"measurement": "MIC", "setting": "Staphylococcus aureus [1]", "result": 68.55, "unit": "µg/mL"}, {"measurement": "MBC", "setting": "Pseudomonas aeruginosa [2]", "result": 117.15, "unit": "µg/mL"}, {"measurement": "MIC", "setting": "Pseudomonas aeruginosa [2]", "result": 58.55, "unit": "µg/mL"}, {"measurement": "MBC", "setting": "Salmonella typhi [3]", "result": 117.15, "unit": "µg/mL"}, {"measurement": "MIC", "setting": "Salmonella typhi [3]", "result": 58.55, "unit": "µg/mL"}, {"measurement": "MBC", "setting": "Staphylococcus epidermis [4]", "result": 58.55, "unit": "µg/mL"}, {"measurement": "MIC", "setting": "Staphylococcus epidermis [4]", "result": 29.25, "unit": "µg/mL"}, {"measurement": "MBC", "setting": "Escherichia coli [5]", "result": 58.55, "unit": "µg/mL"}, {"measurement": "MIC", "setting": "Escherichia coli [5]", "result": 29.25, "unit": "µg/mL"}, {"measurement": "Zone of inhibition: diameter", "setting": "Staphylococcus aureus [6]; 120 μg/disc", "result": "17.6 ± 1.47", "unit": "mm"}, {"measurement": "Zone of inhibition: diameter", "setting": "Pseudomonas aeruginosa [7]; 120 μg/disc", "result": "16.3 ± 1.63", "unit": "mm"}, {"measurement": "Zone of inhibition: diameter", "setting": "Salmonella typhi [8]; 120 μg/disc", "result": "16.3 ± 1.08", "unit": "mm"}, {"measurement": "Zone of inhibition: diameter", "setting": "Staphylococcus epidermis [9]; 120 μg/disc", "result": 19.3, "unit": "mm"}, {"measurement": "Zone of inhibition: diameter", "setting": "Escherichia coli [10]; 120 μg/disc", "result": "18.6 ± 1.47", "unit": "mm"}]}
{"smiles": "CC1(C)S[C@@H]2[C@H](NC(=O)[C@H](N)c3ccccc3)C(=O)N2[C@H]1C(=O)O", "note": "[Ampicillin, reference compound]", "values": [{"measurement": "MBC", "setting": "Staphylococcus epidermis [4]; Staphylococcus, ATCC12228, read-out: MBC", "result": 7.81, "unit": "µg/mL"}, {"measurement": "MIC", "setting": "Staphylococcus epidermis [4]; Staphylococcus, ATCC12228, read-out: MIC", "result": 3.9, "unit": "µg/mL"}, {"measurement": "MBC", "setting": "Escherichia coli [5]; Escherichia coli, read-out: MBC", "result": 7.81, "unit": "µg/mL"}, {"measurement": "MIC", "setting": "Escherichia coli [5]; Escherichia coli, read-out: MIC", "result": 3.9, "unit": "µg/mL"}, {"measurement": "Zone of inhibition (class)", "setting": "Staphylococcus aureus [6]; 25 μg/disc", "result": "R"}, {"measurement": "zone of inhibition at 25 µg/disc", "setting": "Staphylococcus aureus [6]; Staphylococcus aureus, 25 μg/disc, read-out: Zone of inhibition: diameter", "result": "< 13", "unit": "mm"}, {"measurement": "Zone of inhibition (class)", "setting": "Pseudomonas aeruginosa [7]; 25 μg/disc", "result": "R"}, {"measurement": "Zone of inhibition (class)", "setting": "Salmonella typhi [8]; 25 μg/disc", "result": "R"}, {"measurement": "zone of inhibition at 25 µg/disc", "setting": "Staphylococcus epidermis [9]; Staphylococcus, 25 μg/disc, read-out: Zone of inhibition: diameter", "result": 23.3, "unit": "mm"}, {"measurement": "zone of inhibition at 25 µg/disc", "setting": "Escherichia coli [10]; Escherichia coli, 25 μg/disc, read-out: Zone of inhibition: diameter", "result": "22.3 ± 1.77", "unit": "mm"}]}
{"smiles": "O=C1C(=Cc2ccc(F)cc2)CNCC12C(c1ccc(F)cc1)C1CSCN1C21C(=O)Nc2ccccc21", "note": "(stereo not drawn) [Compound 6a, spiro[5.3″ ]-oxindole-spiro-[6.2′]-6′-(4-fluorophenylmethylidene)tetrahydro-4′(1H)-pyridinone-7-(4-fluorophenyl)tetrahydro-1H-pyrrolo[1,2-c][1,3] thiazole]", "values": [{"measurement": "Live/dead AO/EB double staining appearance of treated cells", "setting": "P. aeruginosa", "result": "dented, blistered and damaged cell walls; also recorded: appeared red"}, {"measurement": "Live/dead AO/EB double staining appearance of treated cells", "setting": "S. aureus", "result": "dented, blistered and damaged cell walls; also recorded: appeared red"}, {"measurement": "MBC", "setting": "Staphylococcus aureus [1]", "result": 58.55, "unit": "µg/mL"}, {"measurement": "MIC", "setting": "Staphylococcus aureus [1]", "result": 29.25, "unit": "µg/mL"}, {"measurement": "MBC", "setting": "Pseudomonas aeruginosa [2]", "result": 58.55, "unit": "µg/mL"}, {"measurement": "MIC", "setting": "Pseudomonas aeruginosa [2]", "result": 29.25, "unit": "µg/mL"}, {"measurement": "MBC", "setting": "Salmonella typhi [3]", "result": 58.55, "unit": "µg/mL"}, {"measurement": "MIC", "setting": "Salmonella typhi [3]", "result": 29.25, "unit": "µg/mL"}, {"measurement": "MBC", "setting": "Staphylococcus epidermis [4]", "result": 29.25, "unit": "µg/mL"}, {"measurement": "MIC", "setting": "Staphylococcus epidermis [4]", "result": 14.62, "unit": "µg/mL"}, {"measurement": "MBC", "setting": "Escherichia coli [5]", "result": 29.25, "unit": "µg/mL"}, {"measurement": "MIC", "setting": "Escherichia coli [5]", "result": 14.62, "unit": "µg/mL"}, {"measurement": "Zone of inhibition: diameter", "setting": "Staphylococcus aureus [6]; 60 μg/disc", "result": "26.3±0.81", "unit": "mm"}, {"measurement": "Zone of inhibition: diameter", "setting": "Pseudomonas aeruginosa [7]; 60 μg/disc", "result": "19.3±0.81", "unit": "mm"}, {"measurement": "Zone of inhibition: diameter", "setting": "Salmonella typhi [8]; 60 μg/disc", "result": "22.3±1.47", "unit": "mm"}, {"measurement": "Zone of inhibition: diameter", "setting": "Staphylococcus epidermis [9]; 60 μg/disc", "result": "31.3±1.08 mm and 31.3 mm"}, {"measurement": "Zone of inhibition: diameter", "setting": "Escherichia coli [10]; 60 μg/disc", "result": "27.3±1.08", "unit": "mm"}]}
